These results are taken from PMC2606016 (The Journal of Biological Chemistry, 2008).

Structures are written as SMILES.

Test [1] deals with T1, HoNTT (Holospora obtusa, UniProt W6TTK3).
T1 sequence (W6TTK3 1-514): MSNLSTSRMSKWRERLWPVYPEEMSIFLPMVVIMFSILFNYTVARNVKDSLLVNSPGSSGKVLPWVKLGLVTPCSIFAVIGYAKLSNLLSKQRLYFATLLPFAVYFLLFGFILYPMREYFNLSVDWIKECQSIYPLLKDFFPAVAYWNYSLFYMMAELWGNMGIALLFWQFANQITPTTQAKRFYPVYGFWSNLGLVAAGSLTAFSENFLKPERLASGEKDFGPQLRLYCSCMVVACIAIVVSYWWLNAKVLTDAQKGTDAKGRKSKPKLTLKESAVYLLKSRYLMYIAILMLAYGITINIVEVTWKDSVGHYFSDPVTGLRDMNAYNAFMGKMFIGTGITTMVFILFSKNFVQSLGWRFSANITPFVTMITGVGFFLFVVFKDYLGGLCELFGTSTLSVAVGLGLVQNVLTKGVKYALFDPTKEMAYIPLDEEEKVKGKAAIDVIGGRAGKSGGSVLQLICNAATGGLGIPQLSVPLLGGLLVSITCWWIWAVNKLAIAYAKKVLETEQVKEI
Conditions: 30 °C; labelled compound.

For test [2], the target named is T2, AtNTT1 (Arabidopsis thaliana, UniProt Q39002).
T2 sequence (Q39002 87-624): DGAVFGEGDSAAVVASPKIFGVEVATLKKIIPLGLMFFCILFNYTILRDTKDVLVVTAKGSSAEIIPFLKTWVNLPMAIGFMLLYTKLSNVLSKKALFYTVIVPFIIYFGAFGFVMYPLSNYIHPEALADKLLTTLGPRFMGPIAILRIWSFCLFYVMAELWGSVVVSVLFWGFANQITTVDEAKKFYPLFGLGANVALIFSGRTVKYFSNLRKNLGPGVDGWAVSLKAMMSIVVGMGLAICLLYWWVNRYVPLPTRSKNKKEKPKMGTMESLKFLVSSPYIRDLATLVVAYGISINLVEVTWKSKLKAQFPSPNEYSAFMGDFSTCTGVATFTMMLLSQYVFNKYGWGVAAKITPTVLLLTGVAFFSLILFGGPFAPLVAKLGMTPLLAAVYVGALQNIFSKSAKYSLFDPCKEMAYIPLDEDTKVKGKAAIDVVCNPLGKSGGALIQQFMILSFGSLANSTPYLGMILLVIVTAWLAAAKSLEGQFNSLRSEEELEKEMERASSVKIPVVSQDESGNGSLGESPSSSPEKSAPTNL
Conditions: 30 °C; labelled compound.

As for `Nc1ncnc2c1ncn2[C@@H]1O[C@H](COP(=O)(O)OP(=O)(O)OP(=O)(O)O)[C@@H](O)[C@H]1O` [ATP], the “uptake of labelled substrate into proteoliposomes” value was “All recombinant carriers mediated ATP and ADP transport” in test [1]; “All recombinant carriers mediated ATP and ADP transport” in test [2].
